System: hCLRN1^N48K-YFP
Assay: Hair bundle localization of hCLRN1^N48K-YFP (YFP intensity) in neuromast hair cells of live larvae treated with SERCA inhibitors
Type: in vivo, zebrafish
Design: key to YFP intensity in the bundle compared to untreated control / YFP intensity, post-exposure hair cell body hCLRN1N48K aggregates recovery: “—” = The YFP intensity in the bundle is similar to untreated control.; “+” = The YFP intensity in the bundle is higher compared to untreated control
Conditions: for Hair bundles with strong expression of hCLRN1^N48K-YFP protein / Increase in trafficking of hCLRN1^N48K to the hair bundle: 1 μM TG or 0.4 μM ART; for Hair bundles with strong expression of hCLRN1^N48K-YFP protein: untreated <5%, FIG. 4I; for Cumulative average of YFP intensity in the ROI in hair bundles (Mean±SEM) / Increase in trafficking of hCLRN1^N48K to the hair bundle: hCLRN1^N48K-YFP, clrn1^+/+ larvae; for Cumulative average of YFP intensity in the ROI in hair bundles (Mean±SEM): 1 uM TG or 0.4 uM ART + 0.01% DMSO in E3 medium, untreated 5.927±0.32; for Increase in trafficking of hCLRN1^N48K to the hair bundle: versus untreated
Protocol: hCLRN1-YFP predominantly localize to the hair bundle and a weak expression in the hair cell membrane in the transgenic hCLRN1-YFP; clrn1^+/+ zebrafish line, and the human pathogenic variant hCLRN1^N48K-YFP mislocalized in the endoplasmic reticulum (ER) with a small amount manages to get trafficked to the hair bundle of the transgenic hCLRN1^N48K-YFP; clrn1^+/+ zebrafish larvae. A relative quantification of YFP fluorescence intensity was carried-out to compare the quantity of hCLRN1^N48K-YFP that manages to localize in the hair bundle to the hCLRN1-YFP in the hair bundle. To quantify the YFP fluorescence intensity, unadjusted 1 micron middle section images of four hair bundles per neuromast were analyzed in Image J. Fluorescence intensity is reported as the background subtracted Integrated Density value. While Confocal microscopy imaging of neuromast hair bundles from the above mentioned groups, YFP fluorescence channel was unadjusted between siblings from the tested groups, and images chosen for figures were near the mean of the group data. Z-stack image of neuromast hair cells were captures using SP2 confocal microscope and the YFP fluorescence measurements in the hair bundles from 1) control uninjected and 2) unconventional secretory pathway cargo injected groups were obtained using ImageJ. A triangle shaped region of interest covering the area of hair bundle in 1 micron thickness middle section of z-stack image of neuromast hair cells was used to obtain YFP fluorescence pixel intensity measurements (Ihair bundle) and an area without hair cells (Ibackground) in the same image. Fluorescence intensity of YFP (Iload) for each hair bundle in a given neuromast was normalized (Iload=Ihair bundle−Ibackground). We analyzed 4 hair bundle per neuromast per larva, and the YFP fluorescence intensity per neuromast was represented as average of 4 hair bundle YFP intensity (IAvg. load=[…] in a neuromast/larva). And the mean of the total IAvg. load per group was considered for statistical comparison between groups. Student's t-test was used to confirm the observed changes in the YFP intensity in the hair bundles of hGRASP55 mRNA injected compared to hSNX27 mRNA injected and uninjected is significant.
Thapsigargin (TG, 1 mg, Sigma-Aldrich, #T9033) stock in 100% DMSO was diluted in E3 medium to make the required final concentration of the drug. Five different concentrations that were earlier reported to induce ER stress and are non-toxic or lower lethal dose (LD50) in the zebrafish (0.1, 0.5, 1.0, 2.5, 5 μM concentrations) were used in this study. A total of 25 larvae per dosage and treatment duration from the genotypes hCLRN1^N48K-YFP; clrn1^+/+ and hCLRN1-YFP; clrn1^+/+, no older than 72 hours post fertilization (hpf) at the start of the experiment, were placed in a well of 12-well uncoated culture plate (BD Falcon, Canaan, CT). For ER stress induction, larvae were incubated in different dosage of TG from 1 hr to overnight at 28.5° C., followed by three times wash with E3 medium at 28.5° C. (Table 2) and hair cells from the hCLRN1^N48K-YFP; clrn1^+/+ and hCLRN1-YFP; clrn1^+/+ lines were examined for the respective protein distribution pattern in the hair cell bundle and the cell body. Live confocal images of ‘O’ and ‘ML1’ neuromasts per larvae were capture using Leica SP2 confocal microscope with 40× oil immersion objective. Unadjusted 1 micron middle section images of four hair bundles per ML1 neuromast of larvae from TG treated and untreated groups were analyzed using Image J software version v. 1.48 (FIG. 4). The hair bundle trafficked amount of hCLRN1^N48K protein corresponds to the change in YFP intensity in the hair bundle in the TG treated larvae. Quantification of YFP fluorescence intensity was carried out as described in the previous experiment for unconventional trafficking of hCLRN1^N48K-YFP by hGRASP55 cargos. […]

SMILES: C[C@@H]1CC[C@H]2[C@@H](C)C(=O)O[C@@H]3O[C@@]4(C)CC[C@@H]1[C@]32OO4 [ART, Artemisinin]
- Hair bundles with strong expression of hCLRN1^N48K-YFP protein: 76%
- YFP intensity in the bundle compared to untreated control (ART 0.1 μM, exposure 1 h): —
- YFP intensity in the bundle compared to untreated control (ART 0.1 μM, exposure 2 h): —
- YFP intensity in the bundle compared to untreated control (ART 0.1 μM, exposure 4 h): —
- YFP intensity in the bundle compared to untreated control (ART 0.1 μM, exposure 6 h): —
- YFP intensity in the bundle compared to untreated control (ART 0.1 μM, exposure 8 h): —
- YFP intensity in the bundle compared to untreated control (ART 0.1 μM, exposure 10 h): —
- YFP intensity, post-exposure hair cell body hCLRN1N48K aggregates recovery (ART 0.1 μM, post-exposure recovery time 10 h): —
- YFP intensity, post-exposure hair cell body hCLRN1N48K aggregates recovery (ART 0.1 μM, post-exposure recovery time 24 h): —
- YFP intensity, post-exposure hair cell body hCLRN1N48K aggregates recovery (ART 0.1 μM, post-exposure recovery time 48 h): —
- YFP intensity in the bundle compared to untreated control (ART 0.25 μM, exposure 1 h): —
- YFP intensity in the bundle compared to untreated control (ART 0.25 μM, exposure 6 h): —
- YFP intensity in the bundle compared to untreated control (ART 0.25 μM, exposure 10 h): —
- YFP intensity, post-exposure hair cell body hCLRN1N48K aggregates recovery (ART 0.25 μM, post-exposure recovery time 10 h): —
- YFP intensity, post-exposure hair cell body hCLRN1N48K aggregates recovery (ART 0.25 μM, post-exposure recovery time 24 h): —
- YFP intensity, post-exposure hair cell body hCLRN1N48K aggregates recovery (ART 0.25 μM, post-exposure recovery time 48 h): —
- YFP intensity in the bundle compared to untreated control (ART 0.4 μM, exposure 1 h): —
- YFP intensity in the bundle compared to untreated control (ART 0.4 μM, exposure 2 h): —
- YFP intensity in the bundle compared to untreated control (ART 0.4 μM, exposure 6 h): +
- Cumulative average of YFP intensity in the ROI in hair bundles (Mean±SEM): 31.04±1.25
- Increase in trafficking of hCLRN1^N48K to the hair bundle: 5 folds

SMILES: C/C=C(/C)C(=O)O[C@H]1C(C)=C2[C@H]([C@@H]1OC(=O)CCCCCCC)[C@@](C)(OC(C)=O)C[C@H](OC(=O)CCC)[C@@]1(O)[C@H]2OC(=O)[C@@]1(C)O [TG, Thapsigargin]
- Hair bundles with strong expression of hCLRN1^N48K-YFP protein: 38%
- YFP intensity in the bundle compared to untreated control (TG 0.1 μM, exposure 1 h): —
- YFP intensity in the bundle compared to untreated control (TG 0.1 μM, exposure 2 h): —
- YFP intensity in the bundle compared to untreated control (TG 0.1 μM, exposure 3 h): —
- YFP intensity in the bundle compared to untreated control (TG 0.1 μM, exposure 4 h): —
- YFP intensity in the bundle compared to untreated control (TG 0.1 μM, exposure 8 h): —
- YFP intensity in the bundle compared to untreated control (TG 0.1 μM, exposure 16 h): —
- YFP intensity in the bundle compared to untreated control (TG 0.5 μM, exposure 1 h): —
- YFP intensity in the bundle compared to untreated control (TG 0.5 μM, exposure 2 h): —
- YFP intensity in the bundle compared to untreated control (TG 0.5 μM, exposure 3 h): —
- YFP intensity in the bundle compared to untreated control (TG 0.5 μM, exposure 4 h): —
- YFP intensity in the bundle compared to untreated control (TG 0.5 μM, exposure 8 h): —
- YFP intensity in the bundle compared to untreated control (TG 1.0 μM, exposure 1 h): —
- YFP intensity in the bundle compared to untreated control (TG 1.0 μM, exposure 2 h): —
- YFP intensity in the bundle compared to untreated control (TG 1.0 μM, exposure 3 h): +
- Rescue of mutant protein to the hair bundle (TG dosages lower than 1 μM): inefficient in rescuing mutant protein
- Cumulative average of YFP intensity in the ROI in hair bundles (Mean±SEM): 18.59±0.87
- Increase in trafficking of hCLRN1^N48K to the hair bundle: 3 folds

From patent US11865103B2, “Methods of treating disorders associated with glycosylation defective proteins” (CASE WESTERN RESERVE UNIVERSITY, priority 2016, dated 2024)
